Measured values taken from patent publication US20060223775A1 (priority 1992, published 2006).

Assays:
Format in all cases: cell-based
[1] = tested on: transformed (NBK) human fibroblast; test: Cell killing mediated by MVM-TK virions and gancyclovir (WST-1 colorimetric assay); details: WST-1, daily
Method: (§1) The efficiency and selectivity of cells killing mediated by the MVM/P387-TK virions and gancyclovir were assessed by infecting normal (NHF) and transformed (NBK) human fibroblast. The results of said experiments are described in the enclosed FIGS. 8 and 9.
(§2) Cell growth was daily monitored with the WST-1 colorimetric assay (Boehringer).
(§3) In FIG. 9, NHF and NBK cells were infected at different MoI and the cell survival was assessed after 4 days with the WST-1 assay in presence or absence of GCV.

[2] = tested on: normal (NHF) human fibroblast; test: as above; details: mock or MVM-TK infected, WST-1, daily
Method: as §1, §2, §3

[3] = tested on: luciferase gene under the control of a promoter activated by tTA; test: Luciferase expression in clone NBK.MZ.tTA-2 electroporated with pUHC13-1
Method: Selected stably transfected NBK324 clones (G418 selection) were assayed for luciferase expression upon transient transfection (in absence or presence of tetracycline) with the plasmid pUHC13-1 (Gossen and Bujard). The plasmid pUHC13-1 is an expression vector containing the luciferase gene under the control of a promoter activated by tTA.
The best clone selected, NBK.MZ.tTA-2, upon electroporation at 230 volts and 1050 μF with 4 μg of pUHC13-1 is charaterized by the following results (expressed in relative luciferase unit rlu/μg protein): […]

Compound	GCV concentration at which growth was severely suppressed ([1]; MVM-TK infected NBK) [µg/mL]	cell growth at different GCV concentrations ([1]; mock infected NBK)	cell growth at different GCV concentrations [2]	luciferase expression (relative luciferase unit) ([3]; tetracycline 10 ng ml, 4 μg pUHC13-1, 230 volts, 1050 μF) [rlu/μg protein]	luciferase expression (relative luciferase unit) ([3]; tetracycline 100 ng/ml, 4 μg pUHC13-1) [rlu/μg protein]	luciferase expression (relative luciferase unit) ([3]; tetracycline 1 μg/ml, 4 μg pUHC13-1) [rlu/μg protein]
Nc1nc(O)c2ncn(COC(CO)CO)c2n1 [GCV, gancyclovir]	≥ 3	not affected	not affected	–	–	–
CN(C)[C@@H]1C(O)=C(C(N)=O)C(=O)[C@@]2(O)C(O)=C3C(=O)c4c(O)cccc4[C@@](C)(O)[C@H]3C[C@@H]12 [tetracycline]	–	–	–	19212	2268	1568
